Holding throughout (experiment): AK assay 384-well format, Prestwick library screening
The test system of one assay is E. coli. The assay is classed as cell-based, Escherichia coli. The following applies: Escherichia coli, 3 h, 50 μM final drug concentration.
In the next assay the test system is P. aeruginosa. The assay is classed as cell-based, Pseudomonas aeruginosa. The following applies: Pseudomonas aeruginosa, 3 h, 50 μM final drug concentration.
A further assay deals with K. pneumoniae. The assay is classed as cell-based, Klebsiella pneumoniae. The following applies: Klebsiella pneumoniae, 3 h, 50 μM final drug concentration.
The test system of assay [1] is A. baumannii strain 98-37-09. The class given is cell-based, Acinetobacter baumannii. To be noted: Acinetobacter baumannii, 983709, 3 h, 50 μM final drug concentration.
The test system of the next assay is E. cloacae. The class given is cell-based, Enterobacter cloacae. The following applies: Enterobacter cloacae, 3 h, 50 μM final drug concentration.
For assay [2], the system named is S. aureus strain USA300-0114. The class given is cell-based, Staphylococcus aureus. The following applies: Staphylococcus aureus, USA300, 3 h, 50 μM final drug concentration.
The next assay relates to E. faecium. The assay is classed as cell-based, Enterococcus faecium. The following applies: Enterococcus faecium, 3 h, 50 μM final drug concentration.
Setting [3] is: planktonic, cutoff for positive 3-fold increase, read-out: AK-based Prestwick Library Screening Results, E. coli (fold increase in extracellular AK activity).
Where [4] appears, read: planktonic, cutoff for positive 3-fold increase, read-out: AK-based Prestwick Library Screening Results, P. aeruginosa (fold increase in extracellular AK activity).
The mark [5] stands for this setting: planktonic, cutoff for positive 3-fold increase, read-out: AK-based Prestwick Library Screening Results, K. pneumoniae (fold increase in extracellular AK activity).
[6] abbreviates: planktonic, cutoff for positive 3-fold increase, read-out: AK-based Prestwick Library Screening Results, A. baumannii (fold increase in extracellular AK activity).
Where [7] appears, read: planktonic, cutoff for positive 3-fold increase, read-out: AK-based Prestwick Library Screening Results, E. cloacae (fold increase in extracellular AK activity).
[8] abbreviates: planktonic, cutoff for positive 3-fold increase, read-out: AK-based Prestwick Library Screening Results, S. aureus (fold increase in extracellular AK activity).
Setting [9] is: planktonic, cutoff for positive 3-fold increase, read-out: AK-based Prestwick Library Screening Results, E. faecium (fold increase in extracellular AK activity).
The mark [10] stands for this setting: planktonic, cutoff for positive-scoring molecules 3-fold increase, read-out: AK-based Prestwick Library Screening Results, E. coli (fold increase in extracellular AK activity).
[11] abbreviates: planktonic, cutoff for positive-scoring molecules 3-fold increase, read-out: AK-based Prestwick Library Screening Results, P. aeruginosa (fold increase in extracellular AK activity).
The mark [12] stands for this setting: planktonic, cutoff for positive-scoring molecules 3-fold increase, read-out: AK-based Prestwick Library Screening Results, K. pneumoniae (fold increase in extracellular AK activity).
The mark [13] stands for this setting: planktonic, cutoff for positive-scoring molecules 3-fold increase, read-out: AK-based Prestwick Library Screening Results, A. baumannii (fold increase in extracellular AK activity).
The mark [14] stands for this setting: planktonic, cutoff for positive-scoring molecules 3-fold increase, read-out: AK-based Prestwick Library Screening Results, E. cloacae (fold increase in extracellular AK activity).
The mark [15] stands for this setting: planktonic, cutoff for positive-scoring molecules 3-fold increase, read-out: AK-based Prestwick Library Screening Results, S. aureus (fold increase in extracellular AK activity).
The mark [16] stands for this setting: planktonic, cutoff for positive-scoring molecules 3-fold increase, read-out: AK-based Prestwick Library Screening Results, E. faecium (fold increase in extracellular AK activity).
Setting [17] is: planktonic E. coli, positive cutoff 3-fold increase, read-out: AK-based Prestwick library screening result, E. coli (fold increase in extracellular AK activity).
Setting [18] is: planktonic P. aeruginosa, positive cutoff 3-fold increase, read-out: AK-based Prestwick library screening result, P. aeruginosa (fold increase in extracellular AK activity).
Where [19] appears, read: planktonic K. pneumoniae, positive cutoff 3-fold increase, read-out: AK-based Prestwick library screening result, K. pneumoniae (fold increase in extracellular AK activity).
Where [20] appears, read: planktonic A. baumannii, positive cutoff 3-fold increase, read-out: AK-based Prestwick library screening result, A. baumannii (fold increase in extracellular AK activity).
Setting [21] is: planktonic E. cloacae, positive cutoff 3-fold increase, read-out: AK-based Prestwick library screening result, E. cloacae (fold increase in extracellular AK activity).
The mark [22] stands for this setting: planktonic S. aureus, positive cutoff 3-fold increase, read-out: AK-based Prestwick library screening result, S. aureus (fold increase in extracellular AK activity).
The mark [23] stands for this setting: planktonic E. faecium, positive cutoff 3-fold increase, read-out: AK-based Prestwick library screening result, E. faecium (fold increase in extracellular AK activity).
The mark [24] stands for this setting: cutoff for positive-scoring molecules 3-fold increase, read-out: AK-based Prestwick Library Screening Results, E. coli (fold increase in extracellular AK activity).
Where [25] appears, read: cutoff for positive-scoring molecules 3-fold increase, read-out: AK-based Prestwick Library Screening Results, P. aeruginosa (fold increase in extracellular AK activity).
[26] abbreviates: cutoff for positive-scoring molecules 3-fold increase, read-out: AK-based Prestwick Library Screening Results, K. pneumoniae (fold increase in extracellular AK activity).
[27] abbreviates: cutoff for positive-scoring molecules 3-fold increase, read-out: AK-based Prestwick Library Screening Results, A. baumannii (fold increase in extracellular AK activity).
Setting [28] is: cutoff for positive-scoring molecules 3-fold increase, read-out: AK-based Prestwick Library Screening Results, E. cloacae (fold increase in extracellular AK activity).
Where [29] appears, read: cutoff for positive-scoring molecules 3-fold increase, read-out: AK-based Prestwick Library Screening Results, S. aureus (fold increase in extracellular AK activity).
The mark [30] stands for this setting: cutoff for positive-scoring molecules 3-fold increase, read-out: AK-based Prestwick Library Screening Results, E. faecium (fold increase in extracellular AK activity).

Each structure is given as a SMILES string. Structures can show the parent of a compound that is named as a salt. Where two headings read alike, the source gives them in different places.

Turning to `COc1c(C)c2c(c(O)c1C/C=C(\C)CCC(=O)O)C(=O)OC2` [Mycophenolic acid], the fold induction at 50 µM with E. coli (setting [3]) is 1.2; in the assay with P. aeruginosa (setting [4]), 1.2; in the assay with K. pneumoniae (setting [5]), 1.5; in assay [1] (setting [6]), 1.2; in the assay on E. cloacae (setting [7]), 1.3; in assay [2] (setting [8]), 1.1. Besides, the fold induction at 50 µM with E. faecium (setting [9]) turned out to be 1.1.
For `c1cncc(C2=NCCC2)c1` [Myosmine], the fold induction at 50 µM in the assay with E. coli (planktonic, […], read-out: AK-based Prestwick Library Screening Results, E. coli (fold increase in extracellular AK activity)) was 0.5; with P. aeruginosa (planktonic, […], read-out: AK-based Prestwick Library Screening Results, P. aeruginosa (fold increase in extracellular AK activity)), 0.4; in the assay with K. pneumoniae (planktonic, […], read-out: AK-based Prestwick Library Screening Results, K. pneumoniae (fold increase in extracellular AK activity)), 0.5; in assay [1] (planktonic, […], read-out: AK-based Prestwick Library Screening Results, A. baumannii (fold increase in extracellular AK activity)) it was 0.5; with E. cloacae (planktonic, […], read-out: AK-based Prestwick Library Screening Results, E. cloacae (fold increase in extracellular AK activity)), 0.4; in assay [2] (planktonic, […], read-out: AK-based Prestwick Library Screening Results, S. aureus (fold increase in extracellular AK activity)), 0.4. Further, the fold induction at 50 µM in the assay on E. faecium (planktonic, […], read-out: AK-based Prestwick Library Screening Results, E. faecium (fold increase in extracellular AK activity)) was 0.9.
Regarding `O=c1c(O)c(-c2cc(O)c(O)c(O)c2)oc2cc(O)cc(O)c12` [Myricetin], the fold induction at 50 µM in the assay on E. coli (setting [3]) amounted to 0.9; in the assay on P. aeruginosa (setting [4]) it was 0.9; in the assay with K. pneumoniae (setting [5]) it was 0.9; in assay [1] (setting [6]) it was 0.8; in the assay on E. cloacae (setting [7]), 1.2; in assay [2] (setting [8]) it was 0.5. In the assay with E. faecium (setting [9]), the fold induction at 50 µM was 0.8.
As for `CC(=O)N[C@@H](CC(C)C)C(=O)O` [N-Acetyl-L-leucine], the fold induction at 50 µM in the assay on E. coli (setting [10]) came out at 0.7; in the assay with P. aeruginosa (setting [11]), 0.7; with K. pneumoniae (setting [12]), 0.6; in assay [1] (setting [13]), 0.7; in the assay on E. cloacae (setting [14]) it was 0.9; in assay [2] (setting [15]), 0.7. Moreover, in the assay with E. faecium (setting [16]), the fold induction at 50 µM amounted to 0.9.
As for `COc1ccc2cc(CCC(C)=O)ccc2c1` [Nabumetone], the fold induction at 50 µM in the assay with E. coli (setting [10]) is 0.5; in the assay with P. aeruginosa (setting [11]), 0.6; in the assay with K. pneumoniae (setting [12]) it was 0.5; in assay [1] (setting [13]), 0.4; in the assay on E. cloacae (setting [14]), 1; in assay [2] (setting [15]), 0.4. In addition, the fold induction at 50 µM with E. faecium (setting [16]) was determined as 0.4.
In the case of `NC(=O)c1ccc[n+]([C@@H]2O[C@H](COP(=O)([O-])OP(=O)(O)OC[C@H]3O[C@@H](n4cnc5c(N)ncnc54)[C@H](O)[C@@H]3O)[C@@H](O)[C@H]2O)c1` [Nadide], the fold induction at 50 µM was determined as 0.9 in the assay on E. coli (setting [10]); 0.8 in the assay on P. aeruginosa (setting [11]); 0.7 with K. pneumoniae (setting [12]); 0.8 in assay [1] (setting [13]); 0.9 in the assay with E. cloacae (setting [14]); 0.6 in assay [2] (setting [15]). Also, in the assay on E. faecium (setting [16]), the fold induction at 50 µM amounted to 0.9.
Take `CC1CCc2c(N3CCC(O)CC3)c(F)cc3c(=O)c(C(=O)O)cn1c23` (stereo not drawn) [Nadifloxacin]: the fold induction at 50 µM with E. coli (setting [17]) was 13.4; in the assay on P. aeruginosa (setting [18]), 17.7; in the assay with K. pneumoniae (setting [19]), 5.2; in assay [1] (setting [20]), 2.9; in the assay on E. cloacae (setting [21]), 1.7; in assay [2] (setting [22]), 4.3. Besides, the fold induction at 50 µM in the assay with E. faecium (setting [23]) was 2.8.
In the case of `CC(C)(C)NCC(O)COc1cccc2c1CC(O)C(O)C2` (stereo not drawn) [Nadolol], the fold induction at 50 µM with E. coli (setting [10]) is 0.8; in the assay with P. aeruginosa (setting [11]) it was 0.6; with K. pneumoniae (setting [12]) it was 0.6; in assay [1] (setting [13]), 0.7; in the assay with E. cloacae (setting [14]), 0.8; in assay [2] (setting [15]), 0.7. Also, the fold induction at 50 µM in the assay on E. faecium (setting [16]) stood at 0.9.
Regarding `CCOc1ccc2ccccc2c1C(=O)N[C@@H]1C(=O)N2[C@@H]1SC(C)(C)[C@@H]2C(=O)O` [Nafcillin sodium salt monohydrate], the fold induction at 50 µM was 1.2 in the assay on E. coli (setting [24]); 1.3 in the assay with P. aeruginosa (setting [25]); 1 in the assay with K. pneumoniae (setting [26]); 1.5 in assay [1] (setting [27]); 1.4 in the assay with E. cloacae (setting [28]); 6.5 in assay [2] (setting [29]). Besides, the fold induction at 50 µM with E. faecium (setting [30]) was found to be 1.
With `CCN(CC)CCOC(=O)C(Cc1cccc2ccccc12)CC1CCCO1` (stereo not drawn) [Nafronyl oxalate], the fold induction at 50 µM in the assay on E. coli (setting [3]) was determined as 1; with P. aeruginosa (setting [4]), 1.1; in the assay on K. pneumoniae (setting [5]), 1; in assay [1] (setting [6]), 1; in the assay on E. cloacae (setting [7]) it was 1.4; in assay [2] (setting [8]) it was 0.9. The fold induction at 50 µM in the assay with E. faecium (setting [9]) amounted to 1.
In the case of `CN(C/C=C/c1ccccc1)Cc1cccc2ccccc12` [Naftifine hydrochloride], the fold induction at 50 µM was found to be 1 in the assay with E. coli (setting [17]); 0.8 with P. aeruginosa (setting [18]); 0.7 in the assay with K. pneumoniae (setting [19]); 1.1 in assay [1] (setting [20]); 1 in the assay with E. cloacae (setting [21]); 0.8 in assay [2] (setting [22]). The fold induction at 50 µM with E. faecium (setting [23]) was determined as 1.
`COc1ccccc1N1CCN(CC(O)COc2cccc3ccccc23)CC1` (stereo not drawn) [Naftopidil dihydrochloride]: the fold induction at 50 µM amounted to 0.9 in the assay with E. coli (setting [24]); 0.7 in the assay with P. aeruginosa (setting [25]); 0.6 in the assay on K. pneumoniae (setting [26]); 0.7 in assay [1] (setting [27]); 0.9 with E. cloacae (setting [28]); 0.5 in assay [2] (setting [29]). For the same compound, the fold induction at 50 µM with E. faecium (setting [30]) came out at 0.8.

Source of the values: patent US10004701B2, “Methods and compositions for treating infection” (UNIVERSITY OF ROCHESTER, priority 2012, dated 2018).
